Data on 1 compound can be found in patent publication US20150299796A1, “PREDICTION OF TREATMENT RESPONSE TO JAK/STAT INHIBITOR” (priority 2012, published 2015).

Molecules are shown by their SMILES.

One assay concerns pSTAT5. Briefly: Phospho-STAT5 western blot in hematologic tumor cell lines after treatment. The class given is cell-based. To be noted: 0.2 μM or 1 μM, 4 hr and 24 hr. Here is the method:
(§1) […] hematologic tumor cell lines (5 positive for pSTAT5 (AML-193, Hel 92.1.7, Set2, TF-1 and UKE-1) and 4 negative for pSTAT5 (RPM18226, U937, Relt and PL-21) were treated with (R)-3-cyclopentyl-3-[4-(7H-pyrrolo[2,3-d]pyrimidin-4-yl)-1H-pyrazol-1-yl]propanenitrilem, 0.2 μM or 1 μM, and samples were collected at 4 hr and 24 hr after treatment. Phospho-STAT5 was examined by western blot analysis, and the expression of the four signature genes was determined by qPCR. The RNA expression level (ΔCt) of each individual gene in the signature was determined by subtracting the average Ct for the signature gene from the average Ct of the two housekeeper genes (GUSB and TBP). For the normalized relative expression levels the DMSO control treatment ΔCt were set to one and all other treatments the gene Ct values are relative to this value.

Assay [1] relates to four signature genes (PIM1, CISH, SOCS2, ID1). The experiment in a line: qPCR expression of the four signature genes in hematologic tumor cell lines after treatment. To be noted: 0.2 μM or 1 μM, 4 hr and 24 hr. The class given is cell-based. The protocol:
as §1
A general note: In qPCR the cycle at which signal appears reflects the starting amount.

Another assay relates to UKE-1 tumor xenograft. Briefly: UKE-1 tumor xenograft study, modulation of 4-gene signature in tumor. The class given is in vivo, female NOD.SCID mice. To be noted: single dose P.O. 60 mg/kg; tumor samples at 4 and 24 hours (FIG. 6). Here is the method:
The modulation of gene signature by (R)-3-cyclopentyl-3-[4-(7H-pyrrolo[2,3-d]pyrimidin-4-yl)-1H-pyrazol-1-yl]propanenitrile (ruxolitinib) was further examined in vivo. UKE-1 cells were implanted in female NOD.SCID mice (Harlan) at 1x10e7 cells/mouse. Single dose of (R)-3-cyclopentyl-3-[4-(7H-pyrrolo[2,3-d]pyrimidin-4-yl)-1H-pyrazol-1-yl]propanenitrile was administered P.O. at 60 mg/kg when tumors reached ˜500 mg. Tumor samples were collected at 4 and 24 hours after treatment. The modulation of pSTAT5 in tumor lysate was examined by Western.

[2] abbreviates: pSTAT5 negative cell lines (RPMI 8226 in FIG. 2A).
Where [3] appears, read: pSTAT5 positive cell lines (TF-1 in FIG. 2B).

Turning to `N#CC[C@H](C1CCCC1)n1cc(-c2ncnc3[nH]ccc23)cn1` [(R)-3-cyclopentyl-3-[4-(7H-pyrrolo[2,3-d]pyrimidin-4-yl)-1H-pyrazol-1-yl]propanenitrile], the pSTAT5 modulation result in the assay with pSTAT5 (setting [2]) is on record as “no clear effect”; with pSTAT5 (setting [3]), “down-modulated pSTAT5”. For the same compound, the “changes in signature gene expression” value in assay [1] (setting [2]) is “no clear effect”. In addition, in assay [1] (setting [3]), the “expression of the signature genes” value is listed as “corresponding reduction of the expression of the signature genes”. The “modulation of 4-gene signature in tumor” value with UKE-1 tumor xenograft is “consistent to that observed in vitro”.
